Experimental data from PubChem BioAssay AID1963442 (Molecular Pharmacology Branch, DTP, NCI, 2024).

Tested on: MPNST complex spheroid with HUVEC/MSC, growth, % test/control
Test: Anticancer human tumor MPNST cell line growth inhibition [Asc];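 further: compounds left on spheroids for seven days before reading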
Conditions: for IC50: curve of first compound; for viability, T/C: stronger effect = lower value
Outline: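 Spheroid model: tumor line + HUVEC + hMSC. Single agents and combinations; top conc. at/near clinical Cmax (10 microM if undetermined), half-log dilutions. DMSO stocks at 800-fold test concentration.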

[1] = second compound 0.1 µM, first compound 0.00316 µM
[2] = second compound 0.1 µM, first compound 0.01 µM
[3] = second compound 0.1 µM, first compound 0.0316 µM
[4] = second compound 0.1 µM, first compound 0.1 µM
[5] = second compound 0.1 µM, first compound 0.316 µM
[6] = second compound 0.1 µM, first compound 1 µM
[7] = second compound 0.316 µM, first compound 0.00316 µM
[8] = second compound 0.316 µM, first compound 0.01 µM
[9] = second compound 0.316 µM, first compound 0.0316 µM
[10] = second compound 0.316 µM, first compound 0.1 µM
[11] = second compound 0.316 µM, first compound 0.316 µM
[12] = second compound 0.316 µM, first compound 1 µM
[13] = second compound 1 µM, first compound 0.00316 µM
[14] = second compound 1 µM, first compound 0.01 µM
[15] = second compound 1 µM, first compound 0.0316 µM
[16] = second compound 1 µM, first compound 0.1 µM
[17] = second compound 1 µM, first compound 0.316 µM
[18] = second compound 1 µM, first compound 1 µM
[19] = second compound 3.16 µM, first compound 0.00316 µM
[20] = second compound 3.16 µM, first compound 0.01 µM
[21] = second compound 3.16 µM, first compound 0.0316 µM
[22] = second compound 3.16 µM, first compound 0.1 µM
[23] = second compound 3.16 µM, first compound 0.316 µM
[24] = second compound 3.16 µM, first compound 1 µM
[25] = second compound 10 µM, first compound 0.00316 µM
[26] = second compound 10 µM, first compound 0.01 µM
[27] = second compound 10 µM, first compound 0.0316 µM
[28] = second compound 10 µM, first compound 0.1 µM
[29] = second compound 10 µM, first compound 0.316 µM
[30] = second compound 10 µM, first compound 1 µM

Row | Compound | IC50 (second compound 0.1 µM) [nM] | IC50 (second compound 0.316 µM) [nM] | IC50 (second compound 1 µM) [nM] | IC50 (second compound 3.16 µM) [nM] | IC50 (second compound 10 µM) [nM] | viability, T/C [1] [%] | viability, T/C [2] [%] | viability, T/C [3] [%] | viability, T/C [4] [%] | viability, T/C [5] [%] | viability, T/C [6] [%] | viability, T/C [7] [%] | viability, T/C [9] [%] | viability, T/C [10] [%] | viability, T/C [15] [%] | viability, T/C [16] [%] | viability, T/C [21] [%] | viability, T/C [22] [%] | viability, T/C [27] [%] | viability, T/C [28] [%] | also measured
1 | CCN1CCN(Cc2ccc(Nc3ncc(F)c(-c4cc(F)c5nc(C)n(C(C)C)c5c4)n3)nc2)CC1 + Cc1c(S(C)(=O)=O)c(-c2cc(F)cc(N3CCN(c4ccc(NS(=O)(=O)c5ccc(NC(CCN6CCC(C(=O)OCCCP(=O)(O)O)CC6)CSc6ccccc6)c(S(=O)(=O)C(F)(F)F)c5)cc4)CC3)c2)c(-c2ccc(Cl)cc2)n1C(C)C | > 1000 | > 1000 | > 1000 | 1000 | 316 | 75.8 | 72.3 | 73.7 | 78.3 | 55.8 | 64.5 | 82.8 | 75.6 | 84.2 | 76.9 | 62.3 | 57 | 47.6 | 50.2 | 52.8 | viability, T/C [8]: 54.8%; viability, T/C [11]: 53.5%; viability, T/C [12]: 58%; viability, T/C [13]: 76.6%; viability, T/C [14]: 78.5%; viability, T/C [17]: 53%; viability, T/C [18]: 55.1%; viability, T/C [19]: 73.3%; viability, T/C [20]: 77.9%; viability, T/C [23]: 56.3%; viability, T/C [24]: 47.3%; viability, T/C [25]: 83.5%; viability, T/C [26]: 91.4%; viability, T/C [29]: 55.4%; viability, T/C [30]: 47.1%
2 | Cn1ncnc1[C@H]1c2n[nH]c(=O)c3cc(F)cc(c23)N[C@@H]1c1ccc(F)cc1 + Cc1c(S(C)(=O)=O)c(-c2cc(F)cc(N3CCN(c4ccc(NS(=O)(=O)c5ccc(NC(CCN6CCC(C(=O)OCCCP(=O)(O)O)CC6)CSc6ccccc6)c(S(=O)(=O)C(F)(F)F)c5)cc4)CC3)c2)c(-c2ccc(Cl)cc2)n1C(C)C | > 100 | > 100 | > 100 | > 100 | > 100 | 72.1 | 71.5 | 77.2 | 50.6 |  |  | 80.4 | 66.9 | 59.8 | 55.9 | 65.2 | 61 | 56 | 60.2 | 73.6 | viability, T/C (second compound 0.1 µM, first compound 0.000316 µM): 78.7%; viability, T/C (second compound 0.1 µM, first compound 0.001 µM): 77.9%; viability, T/C (second compound 0.316 µM, first compound 0.000316 µM): 71.8%; viability, T/C (second compound 0.316 µM, first compound 0.001 µM): 74.6%; viability, T/C [8]: 97.1%; viability, T/C (second compound 1 µM, first compound 0.000316 µM): 84.7%; viability, T/C (second compound 1 µM, first compound 0.001 µM): 78.4%; viability, T/C [13]: 93.8%; viability, T/C [14]: 72.1%; viability, T/C (second compound 3.16 µM, first compound 0.000316 µM): 86.7%; viability, T/C (second compound 3.16 µM, first compound 0.001 µM): 75.8%; viability, T/C [19]: 72.6%; viability, T/C [20]: 63.3%; viability, T/C (second compound 10 µM, first compound 0.000316 µM): 100%; viability, T/C (second compound 10 µM, first compound 0.001 µM): 84.8%; viability, T/C [25]: 66.1%; viability, T/C [26]: 64.2%
3 | O=C(c1cc(Cc2n[nH]c(=O)c3ccccc23)ccc1F)N1CCN(C(=O)C2CC2)CC1 + Cc1c(S(C)(=O)=O)c(-c2cc(F)cc(N3CCN(c4ccc(NS(=O)(=O)c5ccc(NC(CCN6CCC(C(=O)OCCCP(=O)(O)O)CC6)CSc6ccccc6)c(S(=O)(=O)C(F)(F)F)c5)cc4)CC3)c2)c(-c2ccc(Cl)cc2)n1C(C)C | > 10000 | > 10000 | 9830 | > 10000 | > 10000 |  |  | 81.9 | 59.6 | 68.3 | 64.5 |  | 70.9 | 67.1 | 58.5 | 78.6 | 101 | 72.9 | 75 | 85.8 | viability, T/C (second compound 0.1 µM, first compound 3.16 µM): 81.1%; viability, T/C (second compound 0.1 µM, first compound 10 µM): 64.5%; viability, T/C [11]: 56.8%; viability, T/C [12]: 69.5%; viability, T/C (second compound 0.316 µM, first compound 3.16 µM): 60.8%; viability, T/C (second compound 0.316 µM, first compound 10 µM): 49.8%; viability, T/C [17]: 65.6%; viability, T/C [18]: 79.7%; viability, T/C (second compound 1 µM, first compound 3.16 µM): 72.6%; viability, T/C (second compound 1 µM, first compound 10 µM): 49.7%; viability, T/C [23]: 77.1%; viability, T/C [24]: 64%; viability, T/C (second compound 3.16 µM, first compound 3.16 µM): 58.8%; viability, T/C (second compound 3.16 µM, first compound 10 µM): 51.5%; viability, T/C [29]: 76.9%; viability, T/C [30]: 62.5%; viability, T/C (second compound 10 µM, first compound 3.16 µM): 68.9%; viability, T/C (second compound 10 µM, first compound 10 µM): 49%
4 | O=C(c1ccc(F)c(F)c1Nc1ccc(I)cc1F)N1CC(O)([C@@H]2CCCCN2)C1 + Cc1c(S(C)(=O)=O)c(-c2cc(F)cc(N3CCN(c4ccc(NS(=O)(=O)c5ccc(NC(CCN6CCC(C(=O)OCCCP(=O)(O)O)CC6)CSc6ccccc6)c(S(=O)(=O)C(F)(F)F)c5)cc4)CC3)c2)c(-c2ccc(Cl)cc2)n1C(C)C | 303 | 336 | 259 | 240 | 181 | 62.2 | 69.7 | 77.1 | 95.3 | 49 | 22.4 | 83 | 107 | 106 | 106 | 77 | 80.7 | 110 | 82.5 | 72.8 | viability, T/C [8]: 80.3%; viability, T/C [11]: 51.9%; viability, T/C [12]: 16.5%; viability, T/C [13]: 82.9%; viability, T/C [14]: 80.6%; viability, T/C [17]: 44.3%; viability, T/C [18]: 13.2%; viability, T/C [19]: 86.2%; viability, T/C [20]: 90.3%; viability, T/C [23]: 36.6%; viability, T/C [24]: 14.5%; viability, T/C [25]: 86.3%; viability, T/C [26]: 81.9%; viability, T/C [29]: 28.8%; viability, T/C [30]: 8.55%
